“Also recorded” adds a separate entry of the source.
What was measured:
Assay type in all cases: cell-based, human
NFkB = NFkB mRNA expression in SCC4 cells; conditions: relative to control cells
Description: Expression of these genes was also assessed in human tongue squamous cell carcinoma SCC4 cells.

OECM1 cells = assay: Transwell (insert) transmigration assay, OECM1; conditions: 1 μg/ml, compared to sham control
Description: A scratch wound healing assay was performed according to known methods to assess the effects of PGDHC on the migration of human oral squamous cell carcinoma cells. […] The scratch wound healing assay was validated with a transwell migration assay.

E-cadherin = assay: Western blot of E-cadherin in OECM1 cells; conditions: 24 h of treatment
Description: (§1) To determine the effect of PGDHC on cell markers involved in metastasis, the protein levels of p-STAT3, EMT markers, E-cadherin, N-cadherin, and Vimentin in OECM1 cells following in vitro exposure to PGDHC were determined by Western blot assay.

N-cadherin = assay: Western blot of N-cadherin in OECM1 cells; conditions: 24 h of treatment
Description: as §1

Vimentin = assay: Western blot of Vimentin in OECM1 cells; conditions: 24 h of treatment
Description: as §1

ASAH1 = ASAH1 (acid ceramidase) mRNA expression in OECM1 cells; conditions: 0.1 or 1 μg/ml of PGDHC
Description: (§2) Exemplary ceramidase genes, the expression of which can be measured to determine upregulation, include but are not limited to ASAH1, ACER2, and ACER3. A determination of ceramidase gene expression can be made according to methods available to one of skill in the art. For example, Yamada et al., J Cell Mol Med. 2023 May;27(9):1290-1295 and Kyriakou et al., Int. J. Mol. Sci. 2020, 21(5):1607 describes measuring the mRNA levels of ceramidases by RNA extraction and RT-PCR.
(§3) To test this hypothesis, it was first determined whether artificially elevated intracellular concentration of ceramide species affect the expression of acid/ASAH1, neutral/ASAH2, and alkaline1-3/ACER1-3 ceramidases in oral squamous cell carcinoma cells using C6-ceramide. Applicant previously reported that C6-ceramide serves as a positive control for PGDHC-mediated inflammation (Kanzaki et al., Biochim Biophys Acta Mol Cell Biol Lipids. 2017 May;1862(5):452-462) and promotes the intracellular accumulation of ceramide in cancer cells. See, e.g., Zhang et al., Front Plant Sci. 2020 Feb. 26:11:145, Zhai et al., Biochem Biophys Res Commun. 2015 December;468(1-2):274-80, Wilhelm et al., Cancers (Basel). 2021 Jan. 13;13(2):270, and Chapman et al., Biochem Pharmacol. 2010 Aug. 1;80(3):308-15.
(§4) Next, the effect of PGDHC on ceramidase gene expression was determined. OECM1 and SCC4 cells were exposed to 0.1 or 1 μg/ml of PGDHC. The mRNA levels of ceramidases were then measured following PGDHC exposure. PGDHC inhibited the expression of ASAH1 and ACER2 mRNAs in OECM1 (FIG. 8). […] See, e.g., Vijayan et al., J Adv Res. 2023 Dec. 21:S2090-1232(23)00403-4, Doan et al., Oncotarget. 2017 Nov. 7;8(68):112662-112674., Lai et al., Sci Rep. 2021 May 27;11(1):11221, Liu et al., Cancer Sci. 2020 July;111(7):2259-2274., and Liu et al., Front Genet. 2023 Mar. 1:14:1148437.
(§5) To elucidate the effects of C16:0 and dh-C16:0 on oral squamous cell carcinoma, the ability of exogenous C16:0 and dh-C16:0 to modulate proliferation and ceramidase expression in OECM1 cells was determined. […] In contrast, no effect of C16:0 on ASAH1 and ACER2 mRNA expressions.
We evaluated the effect of a15:0-i15:0 phosphoethanolamine phospholipid (FIG. 1D), isolated from the gut bacteria Akkermansia muciniphila on OSCC cells.

ACER2 [1] = assay: ACER2 mRNA expression in OECM1 cells; conditions: 0.1 or 1 μg/ml of PGDHC
Description: as §2, §3, §4, §5

ACER2 [2] = assay: ACER2 mRNA expression in SCC4 cells; conditions: 0.1 or 1 μg/ml of PGDHC
Description: as §4

SCC9 cells = assay: Untargeted metabolomic pathway analysis (LC/MS) in SCC9 cells; conditions: 1 μg/ml for 6 h
Description: The plots in FIGS. 16A and 16B display the enriched pathways identified in the analysis, with their corresponding significance levels represented on the x-axis. The significance threshold (p<0.05) is denoted by the dashed line. […] Additionally, the color of the dots represents the enrichment, which indicates the extent to which the metabolites in the pathway were clustered amongst the compounds with the most positive fold-changes (positive enrichments), the most negative fold-changes (negative enrichments), or uniformly distributed across high and low fold-change compounds (enrichment values near 0.0). […] Polar and lipid metabolites were analyzed with hydrophilic interaction chromatography (HILIC/MS) and liquid chromatography (LC/MS), respectively. Mass spectrometry analysis was completed with a mass range of 67-1500 Da with 1 scan/sec and a mass resolution of 120,000 in both positive and negative ionization mode. The MS/MS mass-spectrometry data were acquired in a data-dependent iterative fashion with a 1.3 m/z isolation window. Based upon this metabolomic analysis, phosphoglycerol dihydroceramide (PGDHC) isolated from Porphyromonas gingivalis inhibits metabolomic pathways essential for cell survival in oral squamous cell carcinoma cells (OSCC). […]
SCC9 were exposed to a15:0-i15:0PE (1 μg/ml) for 6 h in vitro. […] The significance threshold (p<0.05) is denoted by the grey dashed line. […] Additionally, the color of the dots represents the enrichment, which indicates the extent to which the metabolites in the pathway were clustered amongst the compounds with the most positive fold-changes (positive enrichments), the most negative fold-changes (negative enrichments), or uniformly distributed across high and low fold-change compounds (enrichment values near 0.0).

In the case of phosphoglycerol dihydroceramide [PGDHC], the “NFkB mRNA in SCC4 cells” value (NFkB) is reported as “significantly diminished”, the “number of transmigrated OECM1 cells” value (OECM1 cells) is reported as “significantly reduced” and the “protein level of E-cadherin in OECM1 cells” value (E-cadherin) is reported as “little to no detectable effect”. The “protein level of N-cadherin in OECM1 cells” value (N-cadherin) was “little to no detectable effect”, the “protein level of Vimentin in OECM1 cells” value (Vimentin) was “little to no detectable effect” and the “expression of ASAH1 mRNA in OECM1” value (ASAH1) was “inhibits; also recorded: dramatically inhibited”. The “expression of ACER2 mRNA in OECM1” value (ACER2 [1]) was “inhibited”, the “expression of ACER2 mRNA in SCC4 cells” value (ACER2 [2]) was “downregulated” and the “Warburg effect in SCC9 cells” value (SCC9 cells) was “altered”. The “arginine and proline metabolism in SCC9 cells” value (SCC9 cells) was “diminished accumulation; also recorded: inhibits”, the “de novo triacylglycerol biosynthesis in SCC9 cells” value (SCC9 cells) was “diminished accumulation; also recorded: inhibits” and the “folate metabolism in SCC9 cells” value (SCC9 cells) was “diminished accumulation; also recorded: inhibits”. For the same substance, the “glycine and serine metabolism in SCC9 cells” value (SCC9 cells) was “diminished accumulation; also recorded: inhibits”, the “level of ATP in SCC9 cells (relative abundance)” value (SCC9 cells) was “altered” and the “level of glucose in SCC9 cells (relative abundance)” value (SCC9 cells) was “altered”. The “mitochondrial electron transport in SCC9 cells” value (SCC9 cells) was “diminished accumulation; also recorded: inhibits”.
